The subject of series [1] is SMS-LHN (LHN) cells. Description: 13-cisRA response of SMS-LHN neuroblastoma cells. The settings on record: 5 μM, initial response. Format: cell-based, human. The text has this:
(§1) FIGS. 4A and 4B provide data showing that protein expression of c-MYC and MYCN in patient-derived neuroblastoma cell lines established from clinical samples collected at diagnosis (Dx) (FIG. 4A) and progressive disease 5 (PD) (FIG. 4B). CHLA-20 and SK—N-BE(2) were used as the positive controls for c-MYC and MYCN. FIG. 4C1 and FIG. 4C2 show dot plots quantitating immunoblotting (IB) data in FIGS. 4A and 4B. The values were normalized in two ways by the intensity of specific proteins in CHLA-20 for c-MYC or SK—N-BE(2) for MYCN and GAPDH. […] Cells were treated with 5 μM 13-cisRA for 14 days. […] Triplicate samples of 10,000 events were collected as single cells for the analyses. […] Relative quantitation (2^−ΔΔCT) was used for the analyses of mRNA expression. […] LDH (cytosolic protein) and Lamin A/C (nuclear protein) were used as fractionation quality controls.
To determine whether increased c-MYC in PD cell lines might be due to 13-cisRA treatment, the SMS-LHN (LHN) human neuroblastoma cell line (MYCN expression without genomic amplification) was treated with a clinically achievable concentration of 13-cisRA (5 μM), following the clinical dosing schedule used in high-risk patients (2 wks on, 2 wks off, x 6 cycles).

The test system of series [2] is LHN-R cells. Description: 13-cisRA response (neurite outgrowth, cell cycle) of resistant LHN-R cells. The series is classed as cell-based, human.
Text: as §1
MetLuc enzymatic activity was measured. CMV immediate early promoter (pCMV IE) was a positive control. […] Left: Locations of the four sets of amplicons (a, b, c, and d) used to detect ChIP-enriched DNA fragments in the MYC enhancer region shown relative to the transcription start site (arrow). Right: PCR results detecting enriched fragments from ChIP assays of each of the 4 amplicons using ChIP-grade OCT4-1 and OCT4-2 antibodies or control normal rabbit IgG antibody. […] Cells were imaged by confocal microscopy. Blue: DAPI stained nucleus, Green: Phalloidin.
FIGS. 6A-6G show OCT4 interacting proteins by protein identification (ID) and post-translational modification (PTM) and verification of the protein expression and the role of the interacting MK2 protein in 13-cisRA resistance. […] M: Marker, C: cytosolic, N: nuclear. For protein ID, the entire lanes were analyzed, and for PTM, the specific OCT4 band was subjected to mass spectrometry analyses. (Right) OCT4 protein sequence with PTM status identified by mass spectrometry. Underline: mass spectrometry coverage, Green: not phosphorylated or acetylated, Red: phosphorylated, acetylated, or undetermined. […] The direct interaction between OCT4 and MK2 is also confirmed by Ni-NTA pull down (Middle) or immunoprecipitation by FLAG (Right) using purified proteins. […] Cells stably transduced with non-targeting NT-shRNA or MAPKAPK2-shRNA were treated with vehicle control or 13-cisRA for 14 days. […] Cells stably transduced with non-targeting NT-shRNA or MAPKAPK2-shRNA were treated with vehicle control or 13-cisRA for 14 days. […] Cells stably transduced with non-targeting NT-shRNA (20±2% vs 18±3%, 15 p=0.17) or MAPKAPK2-shRNA (19±4% vs 5±1%, p<0.01) were treated with vehicle control or 13-cisRA for 14 days.
In LHN-R treated with 13-cisRA, mRNA and protein expression of c-MYC was increased while MYCN remained suppressed (FIGS. 4F and 4G).
Thus, Applicants focused on OCT4 and generated a stable clone of LHN-R with POU5F1 knockdown using a lentiviral vector system by transducing five different short hairpin RNA sequences (POU5F1-shRNA-1 to -5) to evaluate the effect of OCT4 on 13-cisRA resistance in neuroblastoma cells. POU5F1 knockdown decreased c-MYC and Cyclin A protein expression in LHN-R cells (FIG. 5G) relative to a non-targeted control shRNA (NT-shRNA).

Series [3] deals with NCI-H1048 xenograft. Description: In vivo xenograft activity, NCI-H1048. Details: species or system mice. The source says: FIGS. 13A-13I show in vivo xenograft activity of M3814, a DNA-PK inhibitor, and ABT-263, a BCL-2 inhibitor, in mice carrying H1048, a human small cell lung cancer cell line.
FIGS. 14A-14I show in vivo xenograft activity of D8 (narciclasine), a DNA-PK interaction inhibitor, and ABT-199, a BCL-2 inhibitor, in mice carrying H1048, a human small cell lung cancer cell line.
In vivo xenograft activity was examined for narciclasine or M3814 in combination with ABT-263 or ABT-199 in two xenograft models of small cell lung cancer, NCI-H1048 and NCI-H847.

Series [4] deals with small cell lung cancer cell lines. Description: Effect of combination with ABT-737 on c-MYC, cyclin A, PARP and caspase 3. Format: cell-based, human. The settings on record: combined with ABT-737. The procedure: (§2) FIGS. 12A-12F illustrate the combination cytotoxic activity of D8 (i.e., narciclasine) and ABT-737 (a BCL-2 inhibitor) in two small cell lung cancer cell lines. The effect of the combination on c-MYC, pOCT4, OCT4, cyclin A, BCL-2 family of proteins, the cleavage of and caspase-3 and PARP were evaluated.
(§3) Next, Applicants sought to check the activity of narciclasine when combined with other active agents. Venetoclax is currently indicated for chronic lymphocytic leukemia (CLL) and small lymphocytic lymphoma (SLL) patients. […] Thus, Applicants combined narciclasine with ABT-737/ABT-263, pan BCL-2 inhibitors or venetoclax (also known as ABT-199, a BCL-2 inhibitor) to examine the effect of the combination.

For series [5], the system named is LHN-R, CHLA-20, COG-N-289, COG-N-334, COG-N-415 cells. The series is described as follows: MK2 inhibitor effect on pOCT4, c-MYC, Cyclin A in neuroblastoma cell lines. Format: cell-based, human. The procedure: FIGS. 8A-8H show higher pMK2 and pOCT4^S111 in PD with high c-MYC. […] CHLA-20 was used as the control for the two membranes. […] The values were normalized in two ways by the expression of specific proteins in CHLA-20 and GAPDH. […] The expression of pOCT4^S111, OCT4, c-MYC, and Cyclin A was evaluated in subcellular fractions. […] The cells transduced with a doxycycline-inducible system to exogenously express OCT4WT or OCT4 S111A mutant, treated with doxycycline (Dox) for 48h followed by cycloheximide (CHX) incubation for various times. The whole cell lysates were subjected to sill immunoblotting.
Thus, pMK2-mediated increased c-MYC expression is not limited to tumors exposed to 13-cisRA. When S111 residue of OCT4 was mutated pOCT4^S111 were not detected by immunoblotting (FIG. 8G). […] MK2 inhibition by a small molecule MK2 inhibitor results in decreased pOCT4.

Series [6] deals with MOLM-14 and NB4 cells. Description: c-MYC expression and apoptosis in MOLM-14 and NB4. The series is classed as cell-based, human. The settings on record: 24 hours, 100 to 200 nM. The text has this:
FIG. 17 provides data illustrating the effect of D8 (narciclasine) in the expression of c-MYC and apoptosis in two human acute myelogenous leukemia, MOLM-14 and NB4.
Of the six cell lines, two cell lines (MOLM-14 and NB4) were used to test the effect of narciclasine in c-MYC expression.

The subject of series [7] is NCI-H82, NCI-H847, NCI-H889, NCI-H417 cells. Description: c-MYC, pOCT4S93 and apoptosis markers in small cell lung cancer cell lines. Format: cell-based, human. The settings on record: 0.3 to 2.5 μM, compared to vehicle control. The procedure: FIG. 11 illustrates the effect of narciclasine in c-MYC protein expression. Narciclasine's effect on pOCT4S93 and OCT4 as well as apoptosis (measured by caspase and PARP cleavage) are also assessed in four small cell lung cancer cell lines with high c-MYC expression.
Compared to vehicle control, narciclasine reduced c-MYC and pOCT4S93 and cleaved PARP and caspase 3 in four small cell lung cancer cell lines (NCI-H82, NCI-H847, NCI-H889, NCI-H417) at the concentration range between 0.3 and 2.5 μM. These experimental results, which are summarized in FIG. 11, indicate that narciclasine induces apoptosis as a cell death mechanism in small cell lung cancer cells.

Series [8] has as its system small cell lung cancer cell lines. The series is described as follows: Cytotoxicity in 16 small cell lung cancer cell lines. Format: cell-based, human. The source says: FIGS. 10A-10E show cytotoxicity of D8 (i.e., narciclasine) and several DNA-PK inhibitors (NU7441, M3814, CC-115, AZD7648) in 16 small cell lung cancer cell lines with high (black and gray bars) or low (white bars) c-MYC expression.
In this Example, Applicants examined the cytotoxic activity of narciclasine (i.e., D8) in comparison to DNA-PK inhibitors that are commercially available (including NU7441, M3814, CC-115, and AZD7648) in 16 small cell lung cancer cell lines. […] The IC50 values for narciclasine was less than 100 nM in all cell lines except NCI-H889.

In series [9] the test system is NCI-H847 cell line. The series is described as follows: Combination cytotoxicity with ABT-737 in NCI-H847. The series is classed as cell-based, human. Particulars: combined with ABT-737, narciclasine 10 and 20 nM. The procedure: as §2, §3
In series [10] the test system is NCI-H847 xenograft. The series is described as follows: In vivo xenograft activity, NCI-H847. The settings on record: NCI-H847 xenograft mice. The text has this:
FIGS. […]
In NCI-H847 xenograft mice, narciclasine as a single agent extended the event-free survival of mice compared with vehicle control.

Series [11] concerns NCI-H1048 cell line. Description: Combination cytotoxicity with ABT-737 in NCI-H1048. Format: cell-based, human. The settings on record: combined with ABT-737, narciclasine 10 and 20 nM. Here is the method: as §2, §3
The mark [12] stands for this setting: single agent, compared with control, NCI-H1048 xenografted mice.

Some results are limits rather than exact numbers.

The IC50 is the concentration that inhibits the measured activity by half. A higher IC50 goes with weaker potency.

For `CC1=C(/C=C/C(C)=C/C=C/C(C)=C\C(=O)O)C(C)(C)CCC1` [13-cisRA, 13-cis-retinoic acid], the “response to 13-cisRA” value in series [1] was “arrested proliferation, neurite outgrowth and decreased MYCN protein”. Also, the “neurite outgrowth and cell cycle arrest” value in [2] (LHN-R after six cycles, 10 days of 13-cisRA treatment) was “did not show”. The “cell cycle analysis (FIG. 6G)” value in [2] (MAPKAPK2-shRNA LHN-R, 13-cisRA 14 days (vehicle 19±4%)) amounted to 5±1%; in series [2] (NT-shRNA LHN-R, 13-cisRA 14 days (vehicle 20±2%)) it was 18±3%. Further, the S-phase content in series [2] (NT-shRNA-transduced LHN-R, 13-cisRA 14 days (vehicle 26±3%)) is 28±5%; in series [2] (POU5F1 knockdown LHN-R, 13-cisRA 14 days (vehicle 23±4%)), 11±1%.
Take `COc1ccc([C@@H](O)c2cc(-c3ncnc4cc(N5CCOCC5)ccc34)c(F)cc2Cl)nn1` [M3814, alpha S-[2-chloro-4-fluoro-5-[7-(4-morpholinyl)-4-quinazolinyl]phenyl]-6-methoxy-3-pyridazinem ethano, reference compound]: the event-free survival result in series [3] (combined with ABT-263, NCI-H1048 xenografted mice) is on record as “significantly extended”; in [3] (setting [12]), “did not affect”. In addition, the “c-MYC downregulation effect and cyclin A suppression effect” value in series [4] is given as “higher”.
As to `Cc1ccc(-c2ccc3c(ccc4sc5c(c43)NC[C@@H](C)NC5=O)n2)cn1` [PF3644022], in series [5], the “pOCT4, OCT4S111, c-MYC and Cyclin A” value is “decreased”.
As to `O=C1N[C@@H]2C(=C[C@H](O)[C@@H](O)[C@H]2O)c2cc3c(c(O)c21)OCO3` [narciclasine], the “PARP and caspase 3 cleavage” value in series [6] is given as “observed”; in series [7], “cleaved”. Also, the c-MYC expression entry in [6] is listed as “substantially decreased”. Also, the event-free survival result in [3] (combined with ABT-199, NCI-H1048 xenografted mice) was “significantly extended”; in series [3] (setting [12]) it was “did not affect”; in series [10] (combination with ABT-199, compared with the single agents) it was “significantly longer”; in [10] (single agent, compared with vehicle control) it was “extended”. Besides, in [7], the “c-MYC and pOCT4S93 expression” value was “reduced”. In series [8] (all of 16 small cell lung cancer cell lines except NCI-H889), the IC50 is less than 100 nM. Moreover, the “potency in cytotoxicity relative to the agents tested” value in [8] (compared with NU7441, M3814, CC-115, AZD7648) was “highest potency”. The “c-MYC downregulation effect and cyclin A suppression effect” value in series [4] was “higher”. Moreover, the combination cytotoxic activity result in series [9] and in series [11] was “synergistic cytotoxic activity” throughout.

The values are drawn from patent publication US12491191B2, “Inhibition of interaction between OCT4 and MAPKAPK2 or DNA-PKcs to regulate c-MYC in cancer” (Texas Tech University System, priority 2019, dated 2025).
